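Assay format: 96-well plates, 48-hour exposure. At the GI50, growth is halved.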 Active and inactive are the calls of the source. No stated cut-off is given here; in the data, active = GI50 up to about 1.1 µM and inactive = higher.
Experiments:
Experiment in all cases: DTP human tumour cell line panel, 48 h
786-0 = test system: 786-0
DU-145 = test system: DU-145
HCT-15 = test system: HCT-15
K562 = test system: K562
M14 = test system: M14
MCF7 = test system: MCF7
MDA-MB-231 = test system: MDA-MB-231
MDA-MB-435 = test system: MDA-MB-435
MDA-N = test system: MDA-N
NCI-H460 = test system: NCI-H460
OVCAR-3 = test system: OVCAR-3
SF-539 = test system: SF-539
SK-MEL-2 = test system: SK-MEL-2
SK-MEL-5 = test system: SK-MEL-5
SK-OV-3 = test system: SK-OV-3
SR = test system: SR
U-251 = test system: U-251
UACC-257 = test system: UACC-257
UACC-62 = test system: UACC-62
UO-31 = test system: UO-31

Row | SMILES | GI50 (786-0) | GI50 (DU-145) | GI50 (HCT-15) | GI50 (K562) | GI50 (M14) | GI50 (MCF7) | GI50 (MDA-MB-231) | GI50 (MDA-MB-435) | GI50 (MDA-N) | GI50 (NCI-H460) | GI50 (OVCAR-3) | GI50 (SF-539) | GI50 (SK-MEL-2) | GI50 (SK-MEL-5) | GI50 (SK-OV-3) | GI50 (SR) | GI50 (U-251) | GI50 (UACC-257) | GI50 (UACC-62) | GI50 (UO-31)
1 | CCOC(=O)c1cn2c(n1)sc1cc(Cl)ccc12 | 6.58 µM (inactive) | 10.7 µM (inactive) | 5.64 µM | 2.86 µM (inactive) | 18.3 µM (inactive) | 4.2 µM (inactive) | > 100 µM (inactive) | 5.68 µM (inactive) | 2.71 µM (inactive) | > 100 µM (inactive) | 14.1 µM (inactive) | 5.78 µM (inactive) | > 100 µM (inactive) | 7.76 µM (inactive) | 52 µM (inactive) | 1.55 µM (inactive) | 14.1 µM (inactive) | 26.7 µM (inactive) | 59.7 µM (inactive) | 7.21 µM (inactive)
2 | O=[N+]([O-])c1ccc(C(O)(C#CCN2CCCC2)c2ccccc2)cc1 (stereo not given) | 39.4 µM (inactive) | > 100 µM (inactive) | 60.7 µM | 19.7 µM (inactive) | 17.5 µM (inactive) | 53.7 µM (inactive) | 43 µM (inactive) | 24.1 µM (inactive) | 34.1 µM (inactive) | 56.2 µM (inactive) | 49 µM (inactive) | 82 µM (inactive) | 24.5 µM (inactive) | 21 µM (inactive) | 80.7 µM (inactive) | 23.7 µM (inactive) | 38.9 µM (inactive) | 25.6 µM (inactive) | 24.7 µM (inactive) | 26.1 µM (inactive)
3 | Cc1ccc(C(=O)/C=C2/Nc3ccccc3NC2=O)c(C)c1 | 4.19 µM (inactive) | 30.1 µM (inactive) | 64.3 µM | 61.5 µM (inactive) | 49.2 µM (inactive) | 13.3 µM (inactive) | 14.3 µM (inactive) | 30.8 µM (inactive) | 17.5 µM (inactive) | 13.2 µM (inactive) | 32 µM (inactive) | 5.04 µM (inactive) | 46.5 µM (inactive) | 19 µM (inactive) | 7.05 µM (inactive) | 29.4 µM (inactive) | 11.2 µM (inactive) | 42.1 µM (inactive) | 5.37 µM (inactive) | 8.32 µM (inactive)
4 | N#Cc1c(NC(=O)C(F)(F)F)sc2c3c(=O)c4ccccc4c(=O)c=3oc3ccccc3c12 | 25.6 µM (inactive) | 15.3 µM (inactive) | 13.1 µM | 19.8 µM (inactive) | 21.7 µM (inactive) | 20.2 µM (inactive) | 24.3 µM (inactive) | 17.1 µM (inactive) | 18.3 µM (inactive) | 17.6 µM (inactive) | 10.8 µM (inactive) | 7.24 µM (inactive) | 15 µM (inactive) | 11.3 µM (inactive) | 29.4 µM (inactive) | 3.28 µM (inactive) | 14.7 µM (inactive) | 16.7 µM (inactive) | 7.55 µM (inactive) | 19 µM (inactive)
5 | COc1ccc(/C=C2/SC(c3ccc(Cl)cc3)N(NC(=O)CCCCCCCCC(=O)NN3C(=O)/C(=C\c4ccc(OC)c(OC)c4)SC3c3ccc(Cl)cc3)C2=O)cc1OC (stereo not given) | 24.4 µM (inactive) | > 100 µM (inactive) | > 100 µM | 78.3 µM (inactive) | 44.1 µM (inactive) | > 100 µM (inactive) | > 100 µM (inactive) | 42 µM (inactive) | 36.6 µM (inactive) | 61 µM (inactive) | 60 µM (inactive) | 29.2 µM (inactive) | 78 µM (inactive) | 50.1 µM (inactive) | 31.4 µM (inactive) | > 100 µM (inactive) | > 100 µM (inactive) | 54.3 µM (inactive) | 29.3 µM (inactive) | 27.7 µM (inactive)
6 | C=C(C)COC1CCCCO1 (stereo not given) | > 100 µM (inactive) | > 100 µM (inactive) | > 100 µM | 41.6 µM (inactive) | > 100 µM (inactive) | > 100 µM (inactive) | > 100 µM (inactive) | > 100 µM (inactive) | > 100 µM (inactive) | > 100 µM (inactive) | > 100 µM (inactive) | > 100 µM (inactive) | > 100 µM (inactive) | > 100 µM (inactive) | > 100 µM (inactive) | > 10 µM (inactive) | > 100 µM (inactive) | > 100 µM (inactive) | > 100 µM (inactive) | > 100 µM (inactive)

— ChEMBL document CHEMBL1201862, “PubChem BioAssay data set” (2004)
